In patent US20230391868A1, “COMPOSITIONS FOR AND METHODS OF TREATING CANCER” (The George Washington University, priority 2022, published 2023):

Tests used:
[1] = test system: SM1 melanoma tumors; experiment: Immunophenotyping of SM1 tumors by flow cytometry; format: in vivo, mouse
Procedure: Flow Cytometry: Immunophenotyping of tumors by flow cytometry was performed following the protocol previously described (Knox T, et al. (2019) Sci. Rep. 9:6136; Banik D, et al. (2020) Cancer Res. 80:3649-3662). When control tumors reached the endpoint (2000 mm^3), mice were euthanized following the IACUC protocol at The George Washington University, and tumors were processed into a single-cell suspension for analysis by flow cytometry with tumor digestion buffer containing collagenases I and IV, hyaluronidase V, and DNAse I. Dead cells were discriminated using LIVE/DEAD™ Fixable Aqua Dead Cell Stain Kit (ThermoFisher Scientific, L34965). The antibodies used to stain cell surface markers were all purchased from BioLegend (San Diego, CA) unless otherwise mentioned. Myeloid cell surface markers include: APC/Fire 750 anti-mouse CD45.2 (clone 104), Brilliant Violet 421 anti-mouse/human CD11b (clone M1/70), Brilliant Violet 605 anti-mouse Ly-6G/Ly-6C (Gr-1) (clone RB6-8C5), Brilliant Violet 785 anti-mouse F4/80 (clone BM8), APC anti-mouse CD80 (clone 16-10A1), PerCP/Cyanine5.5 anti-mouse H-2Kd (clone SF1-1.1), PE/Cy7 anti-mouse CD206 (MMR) (clone C068C2), PE anti-mouse CD163 (clone 5B11), and Alexa Fluor 700 anti-mouse CD3 (clone 17A2). T cell surface markers are as follows: Brilliant Violet 785 anti-mouse CD45.2 (clone 104), PerCP/Cy5.5 anti-mouse CD3 (clone 17A2), APC/Fire 750 anti-mouse CD8a (clone 53-6.7), Brilliant Violet 650 anti-mouse CD4 (clone GK1.5), Brilliant Violet 605 anti-mouse CD44 (clone IM7), PE anti-mouse CD62L (clone MEL-14), and Pacific Blue anti-mouse CD25 (clone PC61). NK cell surface markers are as follows: Brilliant Violet 785 anti-mouse CD45.2 (clone 104), PerCP/Cy5.5 anti-mouse CD3 (clone 17A2), PE/Cy7 anti-mouse CD49b (pan-NK cells) (clone DX5), Brilliant Violet 421 anti-mouse CD16/32 (clone 93), Alexa Fluor 700 anti-mouse CD8a (clone 53-6.7), and PE anti-mouse 4-1BB (clone 17B5). Multicolor flow data was acquired using a BD FACS Celesta Cell Analyzer, and data analysis was performed with FlowJo software version 10.3. The gating strategies for each immune cell panel can be found in FIG. 11A-FIG. 11C.
To evaluate the effects of the single arms and combination therapy, the tumors were harvested at the experimental endpoint and immunophenotyping was performed by flow cytometry. Overall, the combination of NextA and anti-CD47 had immunomodulatory effects and enhanced immune cell infiltration in the TME. […] The different macrophage populations in the tumors were evaluated (FIG. 6B).

[2] = test system: THP1-derived macrophages; experiment: M1/M2 marker gene expression in THP1-derived macrophages by qRT-PCR; format: cell-based, human
Procedure: (§1) Macrophages were polarized to M1-like phenotype using 50 ng/mL of interferon gamma (IFNγ, 575306, Biolegend) and 100 ng/mL of bacterial lipopolysaccharide (LPS, L2880, Sigma Aldrich, St. Louis, MO) for 24 hours. To polarize macrophages towards the M2-like phenotype, macrophages were stimulated with 20 ng/mL of IL-4 (214-14, PeproTech) and 20 ng/mL of IL-13 (575904, Biolegend). THP1 monocytes were treated with 5 ng/mL of phorbol 12-myristate 13-acetate (PMA) to induce differentiation into macrophages. Once converted to macrophages, media was replaced to remove PMA prior to treatment and/or polarization. Polarization towards M1 and M2 phenotypes was performed with respective recombinant human cytokines from PeproTech: 50 ng/mL of IFNγ (300-02), 20 ng/mL IL-4 (200-04), and 20 ng/mL IL-13 (200-13). 100 ng/mL LPS was also used to polarize toward the M1 phenotype. 3. In vivo Studies.
qRT-PCR: Total RNA was extracted from cells using the Trizol reagent according to manufacturer's instructions (ThermoFisher Scientific, 15596018). Samples were then processed immediately or stored at −80° C. RNA was quantified using a NanoDrop One Spectrophotometer (ThermoFisher Scientific). The 260/280 ratios were routinely over 1.8. Sample cDNA was produced using the iScript cDNA synthesis kit (Bio-Rad, 1708891). Target mRNA was quantified using MyIQ single-color real-time PCR detection system from Bio-Rad (Bio-Rad, Hercules, CA) and iQ SYBR green Supermix (Bio-Rad, 1708882). The following primers were synthesized by Invitrogen (Waltham, MA) with sequences designed by Origene (Rockville, MD): mouse R-actin (MP200232), mouse Nos2 (MP208933), mouse MRC1 (MP207800), human R-actin (HP204660), human IL-1β (HP200544), human MRC1 (HP206121), human NOS2 (HP200591), human CD209 (HP214086), mouse SIRPα (MP215450), mouse LRP1 (MP207604), human LRP1 (HP206040), mouse MFGE8 (MP208190), human MFGE8 (HP225757), mouse CD36 (MP201923), human CD36 (HP200058), and mouse CD47 (MP201932). Primers for mouse ARG-1 (PPM31770C) and human SIRPα (QT01031051) were purchased from Qiagen (Hilden, Germany). Human CD47 primer sequences were obtained from Sudo T, et al and are 5′-[…]-3′ (sense) (SEQ ID NO:01) and 5′-[…]-3′ (antisense) (SEQ ID NO:02) (Sudo T, et al. (2017) Oncol. Lett. 14:801-809). Human CD86 primer sequences are 5′-[…]-3′ (sense) (SEQ ID NO:03) and 5′-[…]-3′ (antisense) (SEQ ID NO:04). Mouse CD80 sequences are 5′-[…]-3′ (sense) (SEQ ID NO:05) and 5′-[…]-3′ (antisense) (SEQ ID NO:06). Cycling conditions were set as per manufacturer's instructions. Single product amplification was confirmed by melting curve analysis. Quantification is expressed in arbitrary units and target mRNA levels were normalized to R-actin expression. […]

[3] = test system: human THP1-derived macrophages; experiment: Pro-phagocytic signal gene expression in THP1-derived macrophages; format: cell-based; settings: human THP1-derived macrophages
Procedure: as §1
qRT-PCR: Total RNA was extracted from cells using the Trizol reagent according to manufacturer's instructions (ThermoFisher Scientific, 15596018). Samples were then processed immediately or stored at −80° C. RNA was quantified using a NanoDrop One Spectrophotometer (ThermoFisher Scientific). The 260/280 ratios were routinely over 1.8. Sample cDNA was produced using the iScript cDNA synthesis kit (Bio-Rad, 1708891). Target mRNA was quantified using MyIQ single-color real-time PCR detection system from Bio-Rad (Bio-Rad, Hercules, CA) and iQ SYBR green Supermix (Bio-Rad, 1708882). The following primers were synthesized by Invitrogen (Waltham, MA) with sequences designed by Origene (Rockville, MD): mouse R-actin (MP200232), mouse Nos2 (MP208933), mouse MRC1 (MP207800), human R-actin (HP204660), human IL-1β (HP200544), human MRC1 (HP206121), human NOS2 (HP200591), human CD209 (HP214086), mouse SIRPα (MP215450), mouse LRP1 (MP207604), human LRP1 (HP206040), mouse MFGE8 (MP208190), human MFGE8 (HP225757), mouse CD36 (MP201923), human CD36 (HP200058), and mouse CD47 (MP201932). […] Quantification is expressed in arbitrary units and target mRNA levels were normalized to R-actin expression.

What does the source list for `CCCCN(Cc1ccc(C(=O)NO)cc1)C(=O)Nc1ccccc1` [NextA, Nexturastat A]?
M1/M2 ratio ([1]; SM1 tumors): increased; M1-like macrophages (CD80+, H2Kd+, F4/80+) ([1]; SM1 tumors (FIG. 6B)): significantly increased; M2-like macrophages (CD206+, CD163+, F4/80+) ([1]; SM1 tumors (FIG. 6B)): significantly decreased; CD3 T cell infiltration ([1]; SM1 tumors (FIG. 6C)): increased; total NKT, CD8+ NKT, and CD137+ CD8+ NKT cells in the TME ([1]; SM1 tumors (FIG. 6J)): significantly increased; M1-associated markers NOS2, CD86, and IL1B ([2]; THP1-derived M1 macrophages, 5 μM NextA (FIG. 1H)): either unaffected or significantly upregulated; expression of M2-associated markers CD206 and CD209 at the transcriptional level ([2]; THP1-derived M2 macrophages, 5 μM NextA (FIG. 1I)): significantly downregulated; expression of Lrp1, Cd36, and Mfge8 [3]: significant increase
